Measurements from US9120764B2, “Chromene derivatives” (Consejo Superior de Investigaciones Cientificas, priority 2010, dated 2015).

How the values were obtained:
[1] = target: T1, interaction between TCR, through CD3ε, and the Nck SH3.1 domain (Homo sapiens, UniProt P16333); test: In vitro "pull-down" assay of the TCR-Nck interaction; type: binding; details: Jurkat lysate, GST-SH3.1(Nck) on agarose beads, Western blot densitometry; FIG. 1
T1 construct: the amino-terminal human Nck1 SH3.1 domain; made in house; host or cells: bacterial cultures (GST-SH3.1); the TCR/CD3ε is endogenous, from a lysate of human Jurkat cells
Description: To do so, 10 million from human T cell line Jurkat were stimulated with 10 μg/ml of an anti-CD3 antibody for 5 minutes at 37° C. After the stimulation, the cells were lysed in isotonic buffer containing 0.3% Brij96 detergent. After removing the nucleus and other cellular debris by centrifugation, cell lysate aliquots were incubated with 10 μl of agarose beads covalently bound to glutathione and bound in turn to 5 μg of purified GST-SH3.1 (Nck) protein from bacterial cultures. The GST-SH3.1(Nck) protein corresponds to a fusion protein between glutathione S-transferase (GST) and the amino-terminal human Nck1 SH3.1 domain. Each of the aliquots of the cell lysate were incubated with GST-SH3.1 (Nck) in the presence of the indicated concentrations of inhibitors. After incubation, the agarose beads were collected by centrifugation and the quantity of TCR associated with GST-SH3.1 (Nck) was assessed by SDS-PAGE and Western blot with an antibody against TCR CD3ζ subunit. The quantification of the ratio between the quantity of TCR joined to GST-SH3.1 (Nck) in the presence of each of the concentrations of inhibitors, with respect to the amount that is attached in the absence of inhibitors, was evaluated by densitometry and is expressed under each rail as a percentage (FIG. 1).

primary T lymphocytes [2] = test: Inhibition of the production of cytokines by T lymphocytes caused by stimulation of the TCR; type: cell-based, human; details: anti-CD3 10 μg/ml plus anti-CD28 1 μg/ml; IFNγ at 24 hours, TNFα, IL6, IL17a at 48 hours; FIG. 4
Description: The effect of the compounds ECRA20, ECRA24, and CBM-1 on the ability of the TCR to induce the secretion of cytokines by T lymphocytes, was evaluated in primary T lymphocytes obtained from blood of healthy human donor. Lymphocytes were stimulated with 10 μg/ml of anti-CD3 plus 1 μg/ml of anti-CD28 in the presence of the indicated quantities of the compounds and the cell supernatants were collected at 24 hours (IFNγ) and 48 hours (TNFα, IL6, and IL17a) to measure the concentration of cytokines secreted in the medium (FIG. 4).

primary T lymphocytes [3] = test: Inhibition of the proliferation of T lymphocytes caused by stimulation of the TCR (CFSE, flow cytometry); type: cell-based, human; details: anti-CD3 10 μg/ml, 3 days, CFSE proliferation index; FIG. 3
Description: The effect of compounds ECRA20, ECRA24 and CBM-1 on the ability of the TCR to induce T lymphocyte proliferation was evaluated in primary T lymphocytes obtained from blood of healthy human donors. T lymphocytes were marked permanently with the fluorescent compound Carboxyfluorescein succinimidyl ester (CFSE) and incubated for 3 days at 37° C. on 96-well plates coated with antibody anti-CD3 (10 μg/ml) in the presence of the indicated concentrations of the compounds. Proliferation index was calculated from the intensity of fluorescence of CFSE measured by flow cytometry. As the cells divide they lose CFSE fluorescence because original fluorescence is divided between the daughter cells. This way each division is followed by a […] of CFSE per cell. So it is possible to calculate the number of divisions. Proliferation index is calculated by dividing the sum of the number of divisions by the calculated number of original parent cells, which have not divided any time. Black square indicates the rate of proliferation of lymphocytes stimulated and not treated with compounds and white square lymphocytes not stimulated with anti-CD3 (FIG. 3).

Structure (SMILES) | effect on the interaction between TCR, through CD3ε, and the Nck SH3.1 domain [1] | production of cytokines by T lymphocytes caused by stimulation of the TCR (primary T lymphocytes [2]) | proliferation of T lymphocytes in response to stimulation of the TCR (primary T lymphocytes [3])
Fc1ccc(C2=C(CN3CCCC3)COc3ccccc32)cc1 [ECRA20, 1-((4-(4-Fluorophenyl)-2H-cromen-3-il)methyl)pyrrolidine] | inhibitory effect | inhibit the production of cytokines | suppress the proliferation of T lymphocytes
COc1ccc2c(c1)C(c1ccc(F)cc1)=C(CN1CCCC1)CO2 [ECRA24, 1-((4-(4-Fluorophenyl)-6-methoxy-2H-chromen-3-yl)methyl)pyrrolidine] | inhibitory effect | inhibit the production of cytokines | suppress the proliferation of T lymphocytes
